# Results published in patent publication US8022088B2, “Substituted bicyclic and tricyclic thrombin receptor antagonists” (Schering Corporation, priority 2006, dated 2011).
# Molecular target: T1, thrombin receptor (Homo sapiens, UniProt P25116)
# T1 construct: tissue North Jersey Blood Center (East Orange, N.J.); host or cells: platelet membranes prepared from platelet concentrates
# T1 sequence (P25116 22-425): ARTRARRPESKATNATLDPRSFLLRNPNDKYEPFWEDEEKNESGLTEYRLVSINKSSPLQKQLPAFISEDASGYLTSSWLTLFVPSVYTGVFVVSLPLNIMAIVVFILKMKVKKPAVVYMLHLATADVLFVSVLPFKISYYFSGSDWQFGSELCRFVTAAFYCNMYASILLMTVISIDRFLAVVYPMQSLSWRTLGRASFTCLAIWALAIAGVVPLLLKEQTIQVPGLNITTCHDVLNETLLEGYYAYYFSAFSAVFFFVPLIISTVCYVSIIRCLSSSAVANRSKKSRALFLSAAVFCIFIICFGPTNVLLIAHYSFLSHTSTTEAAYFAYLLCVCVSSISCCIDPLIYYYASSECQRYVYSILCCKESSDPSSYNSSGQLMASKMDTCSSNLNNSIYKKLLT
# Experiment: High throughput thrombin receptor radioligand binding assay ([3H]haTRAP, platelet membranes)
# Conditions: [3H]haTRAP binding to platelet membranes
# Procedure: A(pF-F)R(ChA)(hR)(I2—Y)—NH2 (1.03 mg) and 10% Pd/C (5.07 mg) were suspended in DMF (250 μl) and diisopropylethylamine (10 μl). The vessel was attached to the tritium line, frozen in liquid nitrogen and evacuated. Tritium gas (342 mCi) was then added to the flask, which was stirred at room temperature for 2 hours. At the completion of the reaction, the excess tritium was removed and the reacted peptide solution was diluted with DMF (0.5 ml) and filtered to remove the catalyst. The collected DMF solution of the crude peptide was diluted with water and freeze dried to remove the labile tritium. The solid peptide was redissolved in water and the freeze drying process repeated. The tritiated peptide ([^3H]haTRAP) was dissolved in 0.5 ml of 0.1% aqueous TFA and purified by HPLC using the following conditions: column, Vydac™ C18, 25 cm×9.4 mm I.D.; mobile phase, (A) 0.1% TFA in water, (B) 0.1% TFA in CH3CN; gradient, (A/B) from 100/0 to 40/60 over 30 min; flow rate, 5 ml/min; detection, UV at 215 nm. The radiochemical purity of [^3H]haTRAP was 99% as analyzed by HPLC. A batch of 14.9 mCi at a specific activity of 18.4 Ci/mmol was obtained.
# Platelet membranes were prepared using a modification of the method of Natarajan et al. (Natarajan et al, Int. J. Peptide Protein Res. 45:145-151 (1995)) from 20 units of platelet concentrates obtained from the North Jersey Blood Center (East Orange, N.J.) within 48 hours of collection. All steps were carried out at 4° C. under approved biohazard safety conditions. Platelets were centrifuged at 100×g for 20 minutes at 4° C. to remove red cells. The supernatants were decanted and centrifuged at 3000×g for 15 minutes to pellet platelets. Platelets were re-suspended in 10 mM Tris-HCl, pH 7.5, 150 mM NaCl, 5 mM EDTA, to a total volume of 200 ml and centrifuged at 4400×g for 10 minutes. This step was repeated two additional times. Platelets were re-suspended in 5 mM Tris-HCl, pH 7.5, 5 mM EDITA to a final volume of approximately 30 ml and were homogenized with 20 strokes in a Dounce™ homogenizer. Membranes were pelleted at 41,000×g, re-suspended in 40-50 ml 20 mM Tris-HCl, pH 7.5, 1 mM EDTA, 0.1 mM dithiothreitol, and 10 ml aliquots were frozen in liquid N2 and stored at −80° C. To complete membrane preparation, aliquots were thawed, pooled, and homogenized with 5 strokes of a Dounce homogenizer. Membranes were pelleted and washed 3 times in 10 mM triethanolamine-HCl, pH 7.4, 5 mM EDTA, and re-suspended in 20-25 ml 50 mM Tris-HCl, pH 7.5, 10 mM MgCl2, 1 mM EGTA, and 1% DMSO. Aliquots of membranes were frozen in liquid N2 and stored at −80° C. Membranes were stable for at least 3 months. 20 units of platelet concentrates typically yielded 250 mg of membrane protein. Protein concentration was determined by a Lowry assay (Lowry et al., J. Biol. Chem., 193:265-275 (1951)).
# Thrombin receptor antagonists were screened using a modification of the thrombin receptor radioligand binding assay of Ahn et al. (Ahn et al., Mol. Pharmacol, 51:350-356 (1997)). The assay was performed in 96 well Nunc plates (Cat. No. 269620) at a final assay volume of 200 μl. Platelet membranes and [^3H]haTRAP were diluted to 0.4 mg/ml and 22.2 nM, respectively, in binding buffer (50 mM Tris-HCl, pH 7.5, 10 mM MgCl2, 1 mM EGTA, 0.1% BSA). Stock solutions (10 mM in 100% DMSO) of test compounds were further diluted in 100% DMSO. Unless otherwise indicated, 10 μl of diluted compound solutions and 90 μl of radioligand (a final concentration of 10 nM in 5% DMSO) were added to each well, and the reaction was started by the addition of 100 μl of membranes (40 μg protein/well). […] Compounds were tested at three concentrations (0.1, 1 and 10 μM). The plates were covered and vortex-mixed gently on a Lab-Line™ Titer Plate Shaker for 1 hour at room temperature. Packard UniFilter™ GF/C filter plates were soaked for at least 1 hour in 0.1% polyethyleneimine. […]
IC50 [µM],Ki [µM],SMILES
0.045,–,C[C@@H]1[C@@H](C)[C@H](/C=C/c2ccc(-c3ccccc3C#N)cn2)C[C@@H]2OC(=O)C[C@@H]12 [Compound 1]
0.02,0.013,O=C1C[C@H]2[C@@H]3CCCC[C@H]3[C@H](/C=C/c3ccc(-c4cc(Cl)ccc4Cl)cn3)C[C@H]2O1 [Compound 4]
0.016,0.011,C[C@@H]1[C@@H](C)[C@H](/C=C/c2ccc(-c3ccccc3C#N)cn2)C[C@H]2OC(=O)C[C@@H]12 [Compound 2]
0.0067,0.0043,N#Cc1cccc(-c2ccc(/C=C/[C@@H]3C[C@H]4OC(=O)C[C@H]4[C@@H]4CCCC[C@H]43)nc2)c1 [Compound 5]
0.0048,0.0031,O=C1C[C@H]2[C@@H]3CCCC[C@H]3[C@H](/C=C/c3ccc(-c4cccc(F)c4)cn3)C[C@H]2O1 [Compound 3]
